Reference: ChEMBL document CHEMBL3044731, “Insecticidal Effects of Organotin(IV) Compounds on Plutella Xylostella (L.) Larvae. II. Inhibitory Potencies Against Acetylcholinesterase and Evidence for Synergism in Tests With Bacillus Thuringiensis(BER.) and Malathion” (Met Based Drugs, 1994)
Values joined by “and” are separate entries in the source; they are usually repeats but may differ in a detail not shown here. Equal values may be shown once.

Test system: Plutella xylostella
Experiment: Insecticidal activity against drug-resistant Plutella xylostella (diamondback moth) fourth-instar larvae exposed to compound through topical application followed by transfer onto fresh Brassica leaves assessed as insect mortality measured 48 hr post compound application
Format: functional
Conditions: not given

First: METHYL TRIPHENYLSTANNYL OXALATE
Second: TRIPHENYLSTANNYL 2-(PHENYLCARBAMOYLTHIO)ACETATE
The LD50 of the first is higher: 4.5 ×10⁻³ mol/L for the first, 1.5 ×10⁻³ mol/L for the second.

Going from DICYCLOPENTYL(PHENYL)STANNANOL to “tricyclohexylstannyl 2-(piperidine-1-carbonothioylthio)acetate”, the LD50 falls from 3.7 ×10⁻³ mol/L to 0.18 ×10⁻³ mol/L.

Going from “(4-chlorophenyl)diphenylstannyl 2-(dimethylcarbamothioylthio)acetate” to “4-(2-oxo-2-(triphenylstannyloxy)ethoxy)benzoic acid”, the LD50 falls from 2.36 ×10⁻³ mol/L to 0.69 ×10⁻³ mol/L.

Going from “1-(dicyclopentyl(phenyl)stannyl)-1H-1,2,4-triazole” to “triphenylstannyl 2-((2-isopropyl-5-methylcyclohexyloxy)carbonothioylthio)acetate”, the LD50 rises from 2.37 ×10⁻³ mol/L to 3.62 ×10⁻³ mol/L.

Compared with “triphenylstannyl 2-(4-nitrophenoxy)acetate”, “triphenylstannyl 2-(4-chlorophenylcarbamoylthio)acetate” is lower in LD50: 4.38 ×10⁻³ mol/L for the first, 0.9 ×10⁻³ mol/L for the second.

First: 1-(tricyclopentylstannyl)-1H-1,2,4-triazole
Second: CNC(=O)ON=C(C)SC [METHOMYL]
The LD50 of the first is lower: 0.27 ×10⁻³ mol/L for the first, 1.43 ×10⁻³ mol/L for the second.

Going from TRIPHENYLSTANNYL ACETATE to “triphenylstannyl 4-oxo-4-phenylbutanoate”, the LD50 falls from 6.06 ×10⁻³ mol/L to 1.84 ×10⁻³ mol/L.

Going from CCOC(=O)CC(SP(=S)(OC)OC)C(=O)OCC (configuration not stated) [MALATHION] to “tricyclohexylstannyl 2-(quinolin-8-yloxy)acetate”, the LD50 falls from 42.6 ×10⁻³ mol/L to 0.57 ×10⁻³ mol/L.

Going from “triphenylstannyl 2-(4-chlorophenoxy)acetate” to “triphenylstannyl 4-(2-carbamoylhydrazono)pentanoate”, the LD50 falls from 2.26 ×10⁻³ mol/L to 2.22 ×10⁻³ mol/L.

Going from “5-(triphenylstannylthio)-1,3,4-thiadiazol-2-amine” to [sequence] 2-([sequence])ACETATE, the LD50 falls from 2.31 ×10⁻³ mol/L to 1.78 ×10⁻³ mol/L.

First: 1-(cyclopentyldiphenylstannyl)-1H-1,2,4-triazole
Second: TRIPHENYLSTANNYL 4-OXOPENTANOATE
The LD50 of the first is higher: 7.85 ×10⁻³ mol/L for the first, 6.95 ×10⁻³ mol/L for the second.

Going from “TRIPHENYLSTANNYL 2-([sequence])ACETATE HYDRATE” to TRIPHENYLSTANNYL 2-([sequence])BENZOATE, the LD50 falls from 24 ×10⁻³ mol/L to 2.06 ×10⁻³ mol/L.

In the case of “triphenylstannyl 2-(morpholine-4-carbonothioylthio)acetate”, the LD50 is reported as 1.66 ×10⁻³ mol/L.

For TRIPHENYLSTANNYL 2-([sequence])ACETATE, the LD50 was 3.23 ×10⁻³ mol/L and 1.8 ×10⁻³ mol/L.

Biological target: T1, Acetylcholinesterase (Plutella xylostella, UniProt Q8MZM0)
T1 sequence (Q8MZM0 whole entry): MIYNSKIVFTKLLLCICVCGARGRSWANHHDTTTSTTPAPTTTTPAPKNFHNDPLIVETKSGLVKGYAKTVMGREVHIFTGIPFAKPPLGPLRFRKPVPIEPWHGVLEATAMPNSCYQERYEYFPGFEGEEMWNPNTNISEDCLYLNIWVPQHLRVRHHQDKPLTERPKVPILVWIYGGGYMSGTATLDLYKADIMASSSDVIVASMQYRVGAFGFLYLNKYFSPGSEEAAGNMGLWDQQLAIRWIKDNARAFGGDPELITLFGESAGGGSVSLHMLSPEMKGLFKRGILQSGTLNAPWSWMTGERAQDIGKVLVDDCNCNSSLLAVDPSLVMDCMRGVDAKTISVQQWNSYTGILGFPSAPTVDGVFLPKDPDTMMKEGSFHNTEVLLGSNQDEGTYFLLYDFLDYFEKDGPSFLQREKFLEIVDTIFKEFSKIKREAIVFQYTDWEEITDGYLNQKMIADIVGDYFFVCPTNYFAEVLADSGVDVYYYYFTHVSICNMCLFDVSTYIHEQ
Experiment: Inhibition of AChE in drug-resistant Plutella xylostella (diamondback moth) fourth-instar larvae homogenates using acetylthiocholine iodide substrate by colorimetric method
Conditions: read-out: I50

With “TRIPHENYLSTANNYL 2-(DIMETHYLCARBAMOYLTHIO)ACETATE” the IC50 was 13.1 mM.

Biological target: T1, Acetylcholinesterase
Experiment: Inhibition of AChE in drug-sensitive Plutella xylostella (diamondback moth) fourth-instar larvae homogenates using acetylthiocholine iodide substrate by colorimetric method
Conditions: read-out: I50

First: TRIPHENYLSTANNYL 2-(DIMETHYLCARBAMOTHIOYLTHIO)ACETATE
Second: TRIPHENYLSTANNYL 2-(DIMETHYLCARBAMOYLTHIO)ACETATE
The IC50 of the first is 4800-fold higher: 26.2 mM for the first, 0.00543 mM for the second.

Biological target: Acetylcholinesterase (Plutella xylostella) (UniProt Q8MZM0)
Sequence (Q8MZM0 entry or part of it): as the sequence (Q8MZM0 whole entry) above
Experiment: Inhibition of AChE in drug-resistant Plutella xylostella (diamondback moth) fourth-instar larvae homogenates at 0.1 mM using acetylthiocholine iodide substrate by colorimetric method
Conditions: not given

Compared with “S-triphenylstannyl piperidine-1-carbothioate”, “triphenylstannyl 2-(piperidine-1-carbonylthio)acetate” is higher in inhibition: 14.8% for the first, 24.4% for the second.

Compared with “TRIPHENYLSTANNYL 2-(PHENYLCARBAMOYLTHIO)ACETATE”, “(4-chlorophenyl)diphenylstannyl 2-(phenylcarbamoylthio)acetate” is lower in inhibition: 31.1% for the first, 15.8% for the second.

Compared with “triphenylstannyl 2-(4-chlorophenylcarbamoylthio)acetate”, “triphenylstannyl 2-(2,4-dichlorophenylcarbamoylthio)acetate” is lower in inhibition: 74.6% for the first, 13.4% for the second.

For “triphenylstannyl 6-(piperidine-1-carbonylthio)hexanoate”, the inhibition was 27%.

For TRIPHENYLSTANNYL 2-([sequence])ACETATE, the inhibition was 27.6% and 31.8% and 42.1%.
